From PubChem BioAssay AID328 (DTP/NCI, 2004) come the findings set out here.

The assay relates to BDF1 mice, P388 leukemia ip, median survival T/C. In words: NCI In Vivo Anticancer Drug Screen. Data for tumor model P388 Leukemia (intraperitoneal) in B6D2F1 (BDF1) mice. To be noted: endpoint: median survival time, higher = longer survival. In a few lines: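 Read-out is survival of treated animals expressed relative to the vehicle group, as a T/C ratio.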
[1] abbreviates: dose: 100.0 mg/kg/injection, schedule: Q01DX009 (ip), vehicle: saline with Tween-80.
[2] abbreviates: dose: 100.0 mg/kg/injection, schedule: Q04DX003 (ip), vehicle: saline with Tween-80.
[3] abbreviates: dose: 200.0 mg/kg/injection, schedule: Q01DX009 (ip), vehicle: saline with Tween-80.
The mark [4] stands for this setting: dose: 200.0 mg/kg/injection, schedule: Q04DX003 (ip), vehicle: saline with Tween-80.
The mark [5] stands for this setting: dose: 400.0 mg/kg/injection, schedule: Q01DX009 (ip), vehicle: saline with Tween-80.
The mark [6] stands for this setting: dose: 400.0 mg/kg/injection, schedule: Q04DX003 (ip), vehicle: saline with Tween-80.
[7] abbreviates: dose: 50.0 mg/kg/injection, schedule: Q01DX009 (ip), vehicle: saline with Tween-80.
Setting [8] is: dose: 100.0 mg/kg/injection, schedule: Q01DX009 (ip), vehicle: water.
The mark [9] stands for this setting: dose: 200.0 mg/kg/injection, schedule: Q01DX009 (ip), vehicle: water.
[10] abbreviates: dose: 400.0 mg/kg/injection, schedule: Q01DX009 (ip), vehicle: water.
The mark [11] stands for this setting: dose: 50.0 mg/kg/injection, schedule: Q01DX009 (ip), vehicle: saline.
Where [12] appears, read: dose: 100.0 mg/kg/injection, schedule: Q01DX009 (ip), vehicle: saline.
The mark [13] stands for this setting: dose: 200.0 mg/kg/injection, schedule: Q01DX009 (ip), vehicle: saline.
Setting [14] is: dose: 25.0 mg/kg/injection, schedule: Q01DX009 (ip), vehicle: saline with Tween-80.

Values joined by “and” are separate entries in the source; they are usually repeats but may differ in a detail not shown here. Equal values may be shown once. Inconclusive results and toxic doses are left out.

Turning to `CC1(C(=O)O)CCC(C(=O)Nc2ccccc2)C1(C)C` (configuration not stated), the T/C is 92 % of control under setting [1]; 100 % of control under setting [2]; 92 % of control under setting [3]; 90 % of control under setting [4]; 92 % of control under setting [5]; 104 % of control under setting [6].

Take `N#CCC(N)=C(C#N)C#N`: the T/C is 100 % of control (dose: 25.0 mg/kg/injection, schedule: Q01DX009 (ip), vehicle: Klucel (hydroxypropylcellulose) (HPC)); 95 % of control (dose: 25.0 mg/kg/injection, schedule: Q04DX003 (ip), vehicle: Klucel (hydroxypropylcellulose) (HPC)); 87 % of control (dose: 50.0 mg/kg/injection, schedule: Q01DX009 (ip), vehicle: Klucel (hydroxypropylcellulose) (HPC)); 104 % of control (dose: 50.0 mg/kg/injection, schedule: Q04DX003 (ip), vehicle: Klucel (hydroxypropylcellulose) (HPC)); 95 % of control (dose: 100.0 mg/kg/injection, schedule: Q01DX009 (ip), vehicle: Klucel (hydroxypropylcellulose) (HPC)); 100 % of control and 104 % of control (dose: 100.0 mg/kg/injection, schedule: Q04DX003 (ip), vehicle: Klucel (hydroxypropylcellulose) (HPC)).

As for `NC(=O)c1nn(C2OC(CO)C(O)C2O)c2ncnc(N)c12` (configuration not stated), the T/C (dose: 12.5 mg/kg/injection, schedule: Q01DX009 (ip), vehicle: Klucel (hydroxypropylcellulose) (HPC)) was 118 % of control.

On to `CC(=O)O[C@H]1[C@H]2O[C@]23[C@@H]2CC[C@@H]4C[C@@H](OC(=O)CCC(=O)O)CC[C@]4(C)[C@H]2CC[C@]3(C)[C@H]1c1ccc(=O)oc1`, for which the T/C reads like this: (dose: 0.13 mg/kg/injection, schedule: Q01DX009 (ip), vehicle: Klucel (hydroxypropylcellulose) (HPC)) 100 % of control; (dose: 0.25 mg/kg/injection, schedule: Q01DX009 (ip), vehicle: Klucel (hydroxypropylcellulose) (HPC)) 101 % of control; (dose: 0.5 mg/kg/injection, schedule: Q01DX009 (ip), vehicle: Klucel (hydroxypropylcellulose) (HPC)) 101 % of control.

Consider `CCOC(=O)c1cc2ccccc2n1-c1ccccc1`, for which, under setting [5], the T/C is 103 % of control.

As for `Nc1ncnc2c1cnn2CCCl`, the T/C was 122 % of control under setting [2] and 118 % of control under setting [4].

Take `COC(=O)/C=C/CCBr`: the T/C runs as follows: (dose: 100.0 mg/kg/injection, schedule: Q04DX002 (ip), vehicle: saline with Tween-80) 104 % of control; (dose: 200.0 mg/kg/injection, schedule: Q04DX002 (ip), vehicle: saline with Tween-80) 109 % of control; (dose: 400.0 mg/kg/injection, schedule: Q04DX002 (ip), vehicle: saline with Tween-80) 114 % of control.

For the compound `Nc1cc(=O)[nH]n1-c1ccccc1`, the T/C by setting is: under setting [7], 101 % of control; under setting [1], 103 % of control; under setting [3], 98 % of control.

Turning to `O=c1[nH]c2ccccc2c(=O)n1C1CCCCC1`, the T/C by setting is: (dose: 12.5 mg/kg/injection, schedule: Q01DX009 (ip), vehicle: water) 111 % of control; (dose: 12.5 mg/kg/injection, schedule: Q04DX003 (ip), vehicle: water) 96 % of control; (dose: 25.0 mg/kg/injection, schedule: Q01DX009 (ip), vehicle: water) 111 % of control; (dose: 25.0 mg/kg/injection, schedule: Q04DX003 (ip), vehicle: water) 100 % of control; (dose: 50.0 mg/kg/injection, schedule: Q04DX003 (ip), vehicle: water) 107 % of control; under setting [8], 106 % of control. Besides, the T/C was 105 % of control (dose: 100.0 mg/kg/injection, schedule: Q04DX003 (ip), vehicle: water); 101 % of control under setting [9]; 101 % of control under setting [10].

On to `CC(C)OC(=O)C1(N)CCCC1`, for which the T/C is, setting by setting: under setting [11], 109 % of control; under setting [12], 109 % of control; under setting [13], 86 % of control; under setting [6], 113 % of control; (dose: 400.0 mg/kg/injection, schedule: Q04DX003 (ip), vehicle: saline) 116 % of control; (dose: 600.0 mg/kg/injection, schedule: Q04DX003 (ip), vehicle: saline with Tween-80) 86 % of control. Besides, the T/C (dose: 600.0 mg/kg/injection, schedule: Q04DX003 (ip), vehicle: saline) was 91 % of control.

As to `O=C(O)CNC(=O)Nc1ccccc1`, the T/C was 91 % of control (dose: 25.0 mg/kg/injection, schedule: Q04DX003 (ip), vehicle: saline with Tween-80); 100 % of control (dose: 50.0 mg/kg/injection, schedule: Q04DX003 (ip), vehicle: saline with Tween-80); 100 % of control under setting [2]; 87 % of control under setting [4]; 104 % of control under setting [6].

In the case of `OCCCC1CCCCC1`, the T/C under setting [11] is 111 % of control, the T/C under setting [12] is 113 % of control and the T/C under setting [13] was 117 % of control.

For the compound `NC(N)=NCCCCCCC(=O)Nc1ccc(S(N)(=O)=O)cc1`, the T/C by setting is: under setting [14], 112 % of control; under setting [7], 106 % of control; under setting [1], 97 % of control.

For the compound `C/C=C(\C)C(=O)OCC1CC[N+](C)([O-])C1` (configuration not stated), the T/C is 103 % of control (dose: 50.0 mg/kg/injection, schedule: Q01DX009 (ip), vehicle: water); 100 % of control under setting [8]; 103 % of control under setting [9]; 119 % of control under setting [10].

Consider `N=c1ccn2c(n1)OC1C(O)C(COS(=O)OC3C(CO)OC4C3Oc3nc(=N)ccn34)OC12` (configuration not stated), for which the T/C is, setting by setting: under setting [14], 122 % of control; under setting [1], 161 % of control; under setting [3], 175 % of control.

Regarding `CC1CN1P(=O)(N1CCCC1)N1CC1C` (configuration not stated), the T/C is, setting by setting: (dose: 12.5 mg/kg/injection, schedule: Q04DX003 (ip), vehicle: saline) 102 % of control; (dose: 25.0 mg/kg/injection, schedule: Q01DX009 (ip), vehicle: saline) 156 % of control; (dose: 25.0 mg/kg/injection, schedule: Q04DX003 (ip), vehicle: saline) 105 % of control; (dose: 32.0 mg/kg/injection, schedule: Q01DX009 (ip), vehicle: saline) 155 % of control; (dose: 37.5 mg/kg/injection, schedule: Q01DX009 (ip), vehicle: saline) 173 % of control; (dose: 50.0 mg/kg/injection, schedule: Q04DX003 (ip), vehicle: saline) 169 % of control. The T/C was 87 % of control (dose: 64.0 mg/kg/injection, schedule: Q01DX009 (ip), vehicle: saline) and 179 % of control (dose: 100.0 mg/kg/injection, schedule: Q04DX003 (ip), vehicle: saline).

For `Cc1c(Cl)cc(Cl)c(N)c1Cl`, the T/C under setting [4] is 100 % of control and the T/C under setting [6] was 100 % of control.

In the case of `COc1ccc(C2NC(=S)NC3=C2CCCC3)cc1` (configuration not stated), the T/C under setting [7] is 96 % of control, the T/C under setting [1] is 107 % of control and the T/C under setting [3] is 98 % of control.
